Laboratory results as given in patent US7781594B2, “5-(4-methanesulfonyl-phenyl)-thiazole derivatives for the treatment of acute and chronic inflammatory diseases” (Faes Farma, S.A., priority 2008, dated 2010).
Entries after “also recorded” stand apart in the source; their conditions may differ.

Key:
IL-10 = IL-10 production by PBMC from healthy volunteers, CBA; type: cell-based, human; conditions: FIG. 9
Protocol: CBA protocol was followed according to the manufacturer's instructions. The election of microparticles was performed following the summary of FIG. 1.
The acquisition on samples was performed with the BD FACS Array Bioanalyser System (FACSArray, Becton Dickinson, San José, Calif., USA) and the analysis of the results was completed with the software FCAP Array (Becton Dickinson) in a PC computer.
Briefly, the experimental protocol consisted of a plate pre-washing out with Wash Buffer. After decantation, the mixture of capture microparticles was re-suspended in the vortex. Standards and samples were added in the adequate dilution. After permanent stirring incubation during 1 h, the PE detection reagent was added and incubated again during 2 h at room temperature. After a washing-out, the acquisition was performed in the flow cytometer.
The effects of compound 12 on IL-10 production by the PBMC from healthy volunteers and patients with rheumatoid arthritis were investigated in the presence and absence of LPS stimulation and with the combination of monoclonal antibodies anti-CD3 and anti-CD28. […]

CD62L in monocytes = test: Shedding of CD62L in monocytes of PBMC, flow cytometry; type: cell-based, human; conditions: healthy volunteers; FIG. 12b
Protocol: Direct immuno-fluorescence techniques of one colour with monoclonal antibodies phycoerythrin-labeled (PE) was used. PE is a fluorescent substance excitable with a 488 nm laser, which emits at 570 nm, and it is detectable and easily distinguishable by a flow cytometer. By using the antibody described in Table 1, a direct labelling was performed:
PBMC labelling: the process consisted in a labelling using 96 well V bottom plates. In each well, 5×10^4 cells are located, and afterwards centrifugated at 400×g during 5 minutes. After washing-out, cells are re-suspended and 5 μl of the corresponding monoclonal antibody are added. Cells are again re-suspended and the plate is incubated in darkness, during 20 minutes, at 4° C. Subsequently, 150 μl PBS are added and two wash-outs are performed. Finally, it is re-suspended in 150 μl PBS and collected in a cytometer tube, adding PBS up to a final volume of 0.3 ml.
For the counting, a FACSCalibur flow cytometer equipped with argon laser tuned at 488 nm was used in order to induce phycoerythrin fluorescence. The equipment, apart from the fluorescence channels, also provided information about the size (FSC) and cellular complexity (SSC).
As negative controls, the study cells with no labelling and other irrelevant labelled with monoclonal antibodies of equal isotypes than the ones used in the study (IgG1-FITC, PE y TC, IgG2a FITC, PE, TC), were used. […]

Cc1nc(OC2CCCC2)c(-c2ccc(S(C)(=O)=O)cc2)s1 [Compound 12, 4-cyclopentyloxy-5-(4-methylsulfonyl-phenyl)-2-methyl-thiazole]
Effect on IL-10 production by PBMC in the presence and absence of LPS or anti-CD3 + anti-CD28 (IL-10): no effects; also recorded: No statistical differences were found
Effect on CD62L shedding in monocytes (CD62L in monocytes): significant differences were not observed
